Data as given in ChEMBL document CHEMBL1201862, “PubChem BioAssay data set” (2004).
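Cells were grown in 96-well plates and exposed to each compound for 48 hours at five concentrations; endpoints were interpolated linearly between bracketing concentrations, or set to the highest concentration if not reached. The concentration for 50% growth inhibition is given as GI50.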 Active and inactive are the calls of the source. No stated cut-off is given here; in the data, active = GI50 up to about 1.1 µM and inactive = higher.

Legend:
Assay in all cases: DTP human tumour cell line panel, 48 h
[1] = tested on: IGROV-1
[2] = tested on: SF-268
[3] = tested on: TK-10
[4] = tested on: KM12
[5] = tested on: HCC 2998
[6] = tested on: SNB-19
[7] = tested on: SK-MEL-28
[8] = tested on: MCF7
[9] = tested on: A498
[10] = tested on: HCT-116
[11] = tested on: MDA-MB-435
[12] = tested on: SN12C
[13] = tested on: SNB-75
[14] = tested on: DU-145
[15] = tested on: OVCAR-8
[16] = tested on: SK-MEL-2
[17] = tested on: EKVX
[18] = tested on: CAKI-1
[19] = tested on: LOX IMVI

| Structure (SMILES) | GI50 [1] | GI50 [2] | GI50 [3] | GI50 [4] | GI50 [5] | GI50 [6] | GI50 [7] | GI50 [8] | GI50 [9] | GI50 [10] | GI50 [11] | GI50 [12] | GI50 [13] | GI50 [14] | GI50 [15] | GI50 [16] | GI50 [17] | GI50 [18] | GI50 [19] |
| --- | --- | --- | --- | --- | --- | --- | --- | --- | --- | --- | --- | --- | --- | --- | --- | --- | --- | --- | --- |
| NCCCNC1(c2cc3ccccc3s2)CCCCC1 | 10.6 µM (inactive) | 9.93 µM (inactive) | 3.75 µM (inactive) | 3.22 µM (inactive) | 1.55 µM (inactive) | 8.77 µM (inactive) | 2.12 µM (inactive) | 3.69 µM (inactive) | 2.72 µM (inactive) | 2.06 µM (inactive) | 1.94 µM (inactive) | 10.5 µM (inactive) | 10.9 µM (inactive) | 12 µM (inactive) | 9.62 µM (inactive) | 1.79 µM (inactive) | 8.65 µM (inactive) | 8.43 µM (inactive) | 2.31 µM (inactive) |
| CC1(C)OC(CCO)CN1C(=O)OCc1ccccc1 (stereo unspecified) | > 100 µM (inactive) |  | > 100 µM (inactive) | > 100 µM (inactive) | > 100 µM (inactive) | > 100 µM (inactive) | > 100 µM (inactive) | > 100 µM (inactive) | > 100 µM (inactive) | > 100 µM (inactive) | > 100 µM (inactive) | > 100 µM (inactive) | 92 µM (inactive) | > 100 µM (inactive) | > 100 µM (inactive) | > 100 µM (inactive) | > 100 µM (inactive) | > 100 µM (inactive) | > 100 µM (inactive) |
| O=C(CCCN1CCC2(CC1)/C(=N/C1CCCCC1)NC(=O)N2c1ccccc1)c1ccc(F)cc1 | 26.7 µM (inactive) | 19 µM (inactive) | 22.5 µM (inactive) | 19.8 µM (inactive) | 20.6 µM (inactive) | > 100 µM (inactive) | 18.6 µM (inactive) | 14.1 µM (inactive) | 15.2 µM (inactive) | 21.3 µM (inactive) | 20.1 µM (inactive) | 18.4 µM (inactive) | 17.2 µM (inactive) | 41.2 µM (inactive) | 28.4 µM (inactive) | 17.7 µM (inactive) | 29.8 µM (inactive) | > 100 µM (inactive) | 14.2 µM (inactive) |
| O=C1c2cc([N+](=O)[O-])sc2C(=O)c2cc([N+](=O)[O-])sc21 | 1.56 µM (inactive) | 3.63 µM (inactive) | 5.89 µM (inactive) | 3.61 µM (inactive) | 3.05 µM (inactive) | 3.85 µM (inactive) | 3.23 µM (inactive) | 2.58 µM (inactive) | 16.2 µM (inactive) | 1.67 µM (inactive) | 2.1 µM (inactive) | 2.8 µM (inactive) | 12.6 µM (inactive) | 10.3 µM (inactive) | 5.79 µM (inactive) | 6.7 µM (inactive) | 3.13 µM (inactive) | 3.76 µM (inactive) | 1.36 µM (inactive) |
| O=c1c2sc3ccccc3sc=2c(=O)c2c(Cl)c(Cl)c(Cl)c(Cl)c12 | > 100 µM (inactive) | > 100 µM (inactive) | > 100 µM (inactive) | > 100 µM (inactive) | 96.2 µM (inactive) | > 100 µM (inactive) | > 100 µM (inactive) | > 100 µM (inactive) | > 100 µM (inactive) | > 100 µM (inactive) | > 100 µM (inactive) | > 100 µM (inactive) | > 100 µM (inactive) | > 100 µM (inactive) | > 100 µM (inactive) | > 100 µM (inactive) | > 100 µM (inactive) | > 100 µM (inactive) |  |
| Cc1cccc2c(N)c3cccc(C(=O)NCC[N+](C)(C)Cc4ccccc4[N+](=O)[O-])c3nc12 | 5.78 µM (inactive) | 5.12 µM (inactive) | 6.62 µM (inactive) | 13.4 µM (inactive) | 9.06 µM (inactive) | 14.1 µM (inactive) | 29.7 µM (inactive) | 4.35 µM (inactive) | 8.97 µM (inactive) | 5.92 µM (inactive) | 21.1 µM (inactive) | 2.11 µM (inactive) | 1.64 µM (inactive) | 8.69 µM (inactive) | 5.89 µM (inactive) | 25.8 µM (inactive) | 31.5 µM (inactive) | 5.71 µM (inactive) | 26.2 µM (inactive) |
| Cc1c2c(n(CCc3ccccc3)c1C)N(C)N=C(C#N)S2(=O)=O | > 100 µM (inactive) | > 100 µM (inactive) | > 100 µM (inactive) | > 100 µM (inactive) | > 100 µM (inactive) | > 100 µM (inactive) | > 100 µM (inactive) | > 100 µM (inactive) | > 10 µM (inactive) | > 100 µM (inactive) | > 100 µM (inactive) | > 100 µM (inactive) | > 100 µM (inactive) | > 100 µM (inactive) | > 100 µM (inactive) | > 100 µM (inactive) | > 100 µM (inactive) | > 100 µM (inactive) |  |
| Cn1c(=O)n2n(c1=O)Cc1cccc3cccc(c13)C2 |  | > 100 µM (inactive) | > 100 µM (inactive) | > 100 µM (inactive) | > 100 µM (inactive) | > 100 µM (inactive) | > 100 µM (inactive) | > 100 µM (inactive) | > 100 µM (inactive) | > 100 µM (inactive) | > 100 µM (inactive) | > 100 µM (inactive) | > 100 µM (inactive) | > 100 µM (inactive) | > 100 µM (inactive) | > 100 µM (inactive) | > 100 µM (inactive) | > 100 µM (inactive) | > 100 µM (inactive) |
| O=C1c2ccccc2C2=Cc3ccccc3C(O)N12 (stereo unspecified) | > 100 µM (inactive) | > 100 µM (inactive) | > 100 µM (inactive) | > 100 µM (inactive) | > 100 µM (inactive) | > 100 µM (inactive) | 37.1 µM (inactive) | > 100 µM (inactive) | > 100 µM (inactive) | > 100 µM (inactive) | > 100 µM (inactive) | > 100 µM (inactive) | 92.5 µM (inactive) | > 100 µM (inactive) | > 100 µM (inactive) | > 100 µM (inactive) | > 100 µM (inactive) | 22.7 µM (inactive) | 38.6 µM (inactive) |
| CC(=O)OCC1OC(n2c3c(cc(C#N)c2=S)CCCCCC3)C(OC(C)=O)C(OC(C)=O)C1OC(C)=O (stereo unspecified) | > 100 µM (inactive) | > 100 µM (inactive) | > 100 µM (inactive) | > 100 µM (inactive) | 27.5 µM (inactive) | > 100 µM (inactive) | > 100 µM (inactive) | > 100 µM (inactive) | > 100 µM (inactive) | 37.8 µM (inactive) | > 100 µM (inactive) | > 100 µM (inactive) | 27.2 µM (inactive) | > 100 µM (inactive) | 69.8 µM (inactive) | > 100 µM (inactive) |  | > 10 µM (inactive) | 21.5 µM (inactive) |
| CC(=O)OC[C@]1(C(=O)C(O)c2ccoc2)[C@H](C)CC[C@@]23COC(=O)C2=CCC[C@@H]31 (stereo partly specified) | > 10 µM (inactive) | > 10 µM (inactive) | > 10 µM (inactive) | > 10 µM (inactive) | > 10 µM (inactive) | > 10 µM (inactive) |  | > 10 µM (inactive) | > 10 µM (inactive) | > 10 µM (inactive) | > 10 µM (inactive) | > 10 µM (inactive) | > 10 µM (inactive) | > 10 µM (inactive) | > 10 µM (inactive) | > 10 µM (inactive) | > 10 µM (inactive) | > 10 µM (inactive) | > 10 µM (inactive) |
| CC[C@@]1(O)C(=O)OCc2c1cc1n(c2=O)Cc2c-1nc1ccccc1c2/C=N\NC(=O)C(N)=O | 4.79 µM (inactive) | < 0.0292 µM (active) | 43.6 µM (inactive) | > 92.3 µM (inactive) | 2.25 µM (inactive) | 0.0383 µM (active) | 17.8 µM (inactive) | 0.0189 µM (active) | 0.457 µM (active) | 0.161 µM (active) | 2.32 µM (inactive) | 0.172 µM (active) | 0.558 µM (active) | 0.0736 µM (active) | 0.248 µM (active) | 29 µM (inactive) | 19.5 µM (inactive) | 0.0655 µM (active) | 0.0389 µM (active) |
| CCOC(=O)C1(Cc2ccccc2)Cc2cc3c(cc2C1=O)CCC3 (stereo unspecified) | > 100 µM (inactive) | > 100 µM (inactive) | > 100 µM (inactive) | > 100 µM (inactive) | > 100 µM (inactive) | > 100 µM (inactive) | > 100 µM (inactive) | > 100 µM (inactive) | > 100 µM (inactive) | > 100 µM (inactive) | > 100 µM (inactive) | > 100 µM (inactive) | > 100 µM (inactive) | > 100 µM (inactive) | > 100 µM (inactive) | > 100 µM (inactive) | > 100 µM (inactive) |  | > 100 µM (inactive) |
| CC(=O)Oc1c2oc3ccc(Cl)cc3c(=O)c2c(O)c2ccsc12 |  | > 100 µM (inactive) | 27.6 µM (inactive) | > 100 µM (inactive) | > 100 µM (inactive) | > 100 µM (inactive) | > 100 µM (inactive) | > 100 µM (inactive) | > 100 µM (inactive) | > 100 µM (inactive) | > 100 µM (inactive) | > 100 µM (inactive) | 52.4 µM (inactive) | > 100 µM (inactive) | > 100 µM (inactive) | > 100 µM (inactive) | > 100 µM (inactive) | > 100 µM (inactive) | > 100 µM (inactive) |
| O=C1Nc2cccc(Cl)c2/C1=C\c1cccnc1 |  | 7.24 µM (inactive) | 17.8 µM (inactive) | 5.96 µM (inactive) | 2.15 µM (inactive) | 3.7 µM (inactive) | 16.4 µM (inactive) | 4.02 µM (inactive) | 21 µM (inactive) | 3.16 µM (inactive) | 5.53 µM (inactive) | 7.82 µM (inactive) | 15.5 µM (inactive) | 6.37 µM (inactive) | 4.33 µM (inactive) | 11.1 µM (inactive) | 17.6 µM (inactive) | 10.2 µM (inactive) | 0.944 µM (active) |
